In ChEMBL document CHEMBL1136586, “Structure-activity relationship of linear peptide Bu-His6-DPhe7-Arg8-Trp9-Gly10-NH2 at the human melanocortin-1 and -4 receptors: DPhe7 and Trp9 substitution” (Bioorg Med Chem Lett, 2003):
Square brackets hold non-standard residues; d marks the D form. Peptide text beside a SMILES is read from it. * marks the point of attachment. Phe(3-CF3) = N[C@@H](Cc1cccc(C(F)(F)F)c1)C(=O)O; Phe(4-Br) = N[C@@H](Cc1ccc(Br)cc1)C(=O)O; Phe(4-Cl) = N[C@@H](Cc1ccc(Cl)cc1)C(=O)O; Phe(4-Me) = Cc1ccc(C[C@H](N)C(=O)O)cc1; Butyryl = CCCC(=O)*

Assays:
[1] = target: T1, Melanocortin receptor 4 (Homo sapiens, UniProt P32245); experiment: Inhibitory concentration of compound was determined against hMC4R through displacement of NDP-MSH radioligand using HEK293 cells; format: cell-based
T1 sequence (P32245 whole entry): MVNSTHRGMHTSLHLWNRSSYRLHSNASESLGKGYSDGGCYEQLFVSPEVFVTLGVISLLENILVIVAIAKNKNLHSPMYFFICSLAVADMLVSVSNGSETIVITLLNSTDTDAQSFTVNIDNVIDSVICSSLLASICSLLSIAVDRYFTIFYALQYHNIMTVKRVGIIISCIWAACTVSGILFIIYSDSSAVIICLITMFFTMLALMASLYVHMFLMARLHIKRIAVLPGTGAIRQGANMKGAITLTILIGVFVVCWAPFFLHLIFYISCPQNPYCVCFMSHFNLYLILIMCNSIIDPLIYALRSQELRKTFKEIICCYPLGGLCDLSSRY

[2] = target: T2, Melanocyte-stimulating hormone receptor (Homo sapiens, UniProt Q01726); experiment: Effective concentration against hMC1R using HEK293 cells was determined by measuring the cAMP accumulation; format: functional, cell-based
T2 sequence (Q01726 whole entry): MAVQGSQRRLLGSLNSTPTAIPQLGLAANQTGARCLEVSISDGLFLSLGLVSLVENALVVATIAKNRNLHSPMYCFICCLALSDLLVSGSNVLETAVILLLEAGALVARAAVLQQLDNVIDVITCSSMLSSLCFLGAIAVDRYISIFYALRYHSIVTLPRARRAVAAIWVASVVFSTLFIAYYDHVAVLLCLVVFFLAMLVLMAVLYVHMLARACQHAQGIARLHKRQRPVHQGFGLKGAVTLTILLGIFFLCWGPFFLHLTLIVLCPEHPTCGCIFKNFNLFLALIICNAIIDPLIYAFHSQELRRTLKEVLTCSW

[3] = target: T1, Melanocortin receptor 4; experiment: (§1) Effective concentration against hMC4R using HEK293 cells was determined by measuring cAMP accumulation at 50 uM; format: functional, cell-based
[4] = target: T2, Melanocyte-stimulating hormone receptor; experiment: Inhibitory concentration of compound was determined against hMC1R through displacement of NDP-MSH radioligand using HEK293 cells; format: cell-based
[5] = target: T1, Melanocortin receptor 4; experiment: (§2) Effective concentration against hMC4R using HEK293 cells was determined by measuring cAMP accumulation; format: functional, cell-based
[6] = target: T1, Melanocortin receptor 4; experiment: as §1; format: functional, cell-based; remark: listed apart in the source
[7] = target: T1, Melanocortin receptor 4; experiment: as §2; format: functional, cell-based; remark: listed apart in the source

CCCC(=O)N[C@@H](Cc1c[nH]cn1)C(=O)N[C@H](Cc1ccc2ccccc2c1)C(=O)N[C@@H](CCCN=C(N)N)C(=O)N[C@@H](Cc1c[nH]c2ccccc12)C(=O)NCC(N)=O
IC50 [1]: 30 nM
EC50 [2]: 48 nM
inhibition [3]: 0%
IC50 [4]: 5000 nM

CCCC(=O)N[C@@H](Cc1c[nH]cn1)C(=O)N[C@H](Cc1ccc(Cl)c(Cl)c1)C(=O)N[C@@H](CCCN=C(N)N)C(=O)N[C@@H](Cc1c[nH]c2ccccc12)C(=O)NCC(N)=O
IC50 [1]: 4 nM
EC50 [2]: 10 nM
inhibition [3]: 0%
IC50 [4]: 250 nM

CCCC(=O)N[C@@H](Cc1c[nH]cn1)C(=O)N[C@H](Cc1cccc2ccccc12)C(=O)N[C@@H](CCCN=C(N)N)C(=O)N[C@@H](Cc1c[nH]c2ccccc12)C(=O)NCC(N)=O
IC50 [1]: 350 nM
EC50 [5]: 65 nM
EC50 [2]: 30 nM
IC50 [4]: 4000 nM

CCCC(=O)N[C@@H](Cc1cnc[nH]1)C(=O)N[C@H](Cc1ccccc1)C(=O)N[C@@H](CCCNC(=N)N)C(=O)N[C@@H](Cc1csc2ccccc12)C(=O)NCC(N)=O
IC50 [1]: 1000 nM
EC50 [5]: 100 nM
EC50 [2]: 274 nM
IC50 [4]: 2880 nM

CCCC(=O)N[C@@H](Cc1cnc[nH]1)C(=O)N[C@@H](Cc1ccccc1)C(=O)N[C@@H](CCCNC(=N)N)C(=O)N[C@@H](Cc1c[nH]c2ccccc12)C(=O)NCC(N)=O
IC50 [1]: 150 nM
EC50 [5]: 20 nM
EC50 [2]: 10 nM
IC50 [4]: 575 nM

CCCC(=O)N[C@@H](Cc1c[nH]cn1)C(=O)N[C@@H](Cc1ccc(OC)cc1)C(=O)N[C@@H](CCCN=C(N)N)C(=O)N[C@@H](Cc1c[nH]c2ccccc12)C(=O)NCC(N)=O (Butyryl-HY(Me)RWG-NH2)
IC50 [1]: 120 nM
EC50 [5]: 60 nM
EC50 [2]: 0.4 nM
IC50 [4]: 70 nM

CCCC(=O)N[C@@H](Cc1cnc[nH]1)C(=O)N[C@@H](Cc1ccc(O)cc1)C(=O)N[C@@H](CCCNC(=N)N)C(=O)N[C@@H](Cc1c[nH]c2ccccc12)C(=O)NCC(N)=O (Butyryl-HYRWG-NH2)
EC50 [5]: 1150 nM
EC50 [2]: 180 nM

CCCC(=O)N[C@@H](Cc1cnc[nH]1)C(=O)N[C@@H](Cc1cccc(C(F)(F)F)c1)C(=O)N[C@@H](CCCNC(=N)N)C(=O)N[C@@H](Cc1c[nH]c2ccccc12)C(=O)NCC(N)=O (Butyryl-H[Phe(3-CF3)]RWG-NH2)
IC50 [1]: 300 nM
EC50 [5]: 45 nM
EC50 [2]: 611 nM
IC50 [4]: 9600 nM

CCCC(=O)N[C@@H](Cc1c[nH]cn1)C(=O)N[C@@H](Cc1ccc(Br)cc1)C(=O)N[C@@H](CCCN=C(N)N)C(=O)N[C@@H](Cc1c[nH]c2ccccc12)C(=O)NCC(N)=O (Butyryl-H[Phe(4-Br)]RWG-NH2)
IC50 [1]: 22 nM
EC50 [5]: 13 nM
EC50 [2]: 54 nM
IC50 [4]: 300 nM

CCCC(=O)N[C@@H](Cc1cnc[nH]1)C(=O)N[C@@H](Cc1ccc(Cl)cc1)C(=O)N[C@@H](CCCNC(=N)N)C(=O)N[C@@H](Cc1c[nH]c2ccccc12)C(=O)NCC(N)=O (Butyryl-H[Phe(4-Cl)]RWG-NH2)
IC50 [1]: 80 nM
EC50 [5]: 20 nM
EC50 [2]: 20 nM
IC50 [4]: 300 nM

CCCC(=O)N[C@@H](Cc1cnc[nH]1)C(=O)N[C@@H](Cc1ccc(C)cc1)C(=O)N[C@@H](CCCNC(=N)N)C(=O)N[C@@H](Cc1c[nH]c2ccccc12)C(=O)NCC(N)=O (Butyryl-H[Phe(4-Me)]RWG-NH2)
EC50 [5]: 77 nM
EC50 [2]: 55 nM

CCCC(=O)N[C@@H](Cc1c[nH]cn1)C(=O)NC(Cc1ccccc1)C(=O)N[C@@H](CCCN=C(N)N)C(=O)NC(Cc1c[nH]c2ccccc12)C(=O)NCC(N)=O (single isomer, unassigned)
EC50 [6]: 110 nM
EC50 [2]: 110 nM

CCCC(=O)N[C@@H](Cc1c[nH]cn1)C(=O)NC(Cc1ccccc1)C(=O)N[C@@H](CCCN=C(N)N)C(=O)N[C@@H](Cc1ccc(Cl)c(Cl)c1)C(=O)NCC(N)=O (single isomer, unassigned)
ED50 [7]: 194 nM
EC50 [2]: 1 nM

CCCC(=O)N[C@@H](Cc1c[nH]cn1)C(=O)NC(Cc1ccc(OCC)cc1)C(=O)N[C@@H](CCCN=C(N)N)C(=O)N[C@@H](Cc1c[nH]c2ccccc12)C(=O)NCC(N)=O (single isomer, unassigned)
IC50 [1]: 100 nM
EC50 [5]: 16 nM
EC50 [2]: 0.1 nM
IC50 [4]: 16 nM

CCCC(=O)N[C@@H](Cc1c[nH]cn1)C(=O)NC(Cc1cccs1)C(=O)N[C@@H](CCCN=C(N)N)C(=O)N[C@@H](Cc1c[nH]c2ccccc12)C(=O)NCC(N)=O (single isomer, unassigned)
EC50 [6]: 8 nM
EC50 [2]: 4 nM

CCCC(=O)N[C@@H](Cc1c[nH]cn1)C(=O)NC(Cc1ccccc1)C(=O)N[C@@H](CCCN=C(N)N)C(=O)N[C@@H](Cc1ccc2ccccc2c1)C(=O)NCC(N)=O (single isomer, unassigned)
IC50 [1]: 50 nM
EC50 [5]: 25 nM
EC50 [2]: 14 nM
IC50 [4]: 600 nM

CCCC(=O)N[C@@H](Cc1c[nH]cn1)C(=O)NC(Cc1ccccc1)C(=O)N[C@@H](CCCN=C(N)N)C(=O)N[C@@H](Cc1cccc2ccccc12)C(=O)NCC(N)=O (single isomer, unassigned)
IC50 [1]: 600 nM
EC50 [5]: 140 nM
EC50 [2]: 150 nM
IC50 [4]: 1200 nM
